The source made the active and inactive calls. The calls are words filed in the database; no cut-off is given here.
Tests used:
[1] = biological target: T1, Bile acid receptor (Homo sapiens) (UniProt Q96RI1); assay: Agonist activity at human FXR LBD assessed as SRC1 peptide recruitment by FRET assay relative to GW 4064; assay type: functional
T1 sequence (whole entry): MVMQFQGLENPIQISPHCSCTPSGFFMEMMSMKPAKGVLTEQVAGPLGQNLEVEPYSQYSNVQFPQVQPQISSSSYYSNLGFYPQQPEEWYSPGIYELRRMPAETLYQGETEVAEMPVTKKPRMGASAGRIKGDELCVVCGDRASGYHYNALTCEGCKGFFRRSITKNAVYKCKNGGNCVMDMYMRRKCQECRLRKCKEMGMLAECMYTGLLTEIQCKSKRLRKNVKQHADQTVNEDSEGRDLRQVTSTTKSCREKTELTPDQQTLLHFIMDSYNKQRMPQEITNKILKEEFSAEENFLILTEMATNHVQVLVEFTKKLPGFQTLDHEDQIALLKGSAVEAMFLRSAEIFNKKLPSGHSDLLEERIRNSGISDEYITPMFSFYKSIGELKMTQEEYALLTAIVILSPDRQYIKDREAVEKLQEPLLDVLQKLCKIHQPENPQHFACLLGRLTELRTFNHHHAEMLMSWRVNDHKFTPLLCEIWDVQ

[2] = biological target: T2, Bile acid receptor (Homo sapiens, UniProt Q96RI1); assay: Agonist activity at human FXR LBD iexpressed in monkey CV-1 cells assessed as transactivation of luciferase reporter gene expression; assay type: functional, cell-based
T2 sequence (Q96RI1 whole entry): T1 sequence (whole entry)

[3] = biological target: T1, Bile acid receptor (Homo sapiens); assay: Agonist activity at human FXR LBD iexpressed in monkey CV-1 cells assessed as transactivation of luciferase reporter gene expression relative to GW 4064; assay type: functional, cell-based; parameters: concentration or dose not given beside the values
[4] = biological target: T2, Bile acid receptor; assay: Agonist activity at human FXR LBD assessed as SRC1 peptide recruitment by FRET assay; assay type: functional
[5] = Oral bioavailability in cynomolgus monkey; assay type: ADME, organism-based, Macaca fascicularis; details: in vivo
[6] = Oral bioavailability in rat; assay type: ADME, organism-based; details: in vivo
[7] = Oral bioavailability in Beagle dog; assay type: ADME, organism-based, Canis lupus familiaris; details: in vivo
[8] = Half life in iv dosed mouse; assay type: ADME, organism-based; details: in vivo
[9] = Clearance in iv dosed rat; assay type: ADME, organism-based; details: in vivo
[10] = Volume of distribution at steady state in iv dosed Beagle dog; assay type: ADME, organism-based, Canis lupus familiaris; details: in vivo, read-out: Vdss
[11] = Clearance in iv dosed Beagle dog; assay type: ADME, organism-based, Canis lupus familiaris; details: in vivo
[12] = Half life in iv dosed cynomolgus monkey; assay type: ADME, organism-based, Macaca fascicularis; details: in vivo
[13] = Half life in iv dosed Beagle dog; assay type: ADME, organism-based, Canis lupus familiaris; details: in vivo
[14] = Oral bioavailability in mouse; assay type: ADME, organism-based; details: in vivo
[15] = tested on: Rattus norvegicus; assay: Dose normalized AUC in orally dosed rat; assay type: ADME, organism-based; details: in vivo, po
[16] = tested on: Mus musculus; assay: Dose normalized AUC in orally dosed mouse; assay type: ADME, organism-based; details: in vivo, po
[17] = tested on: Cynomolgus monkey; assay: Dose normalized AUC in orally dosed cynomolgus monkey; assay type: ADME, organism-based, Macaca fascicularis; details: in vivo, po
[18] = Half life in iv dosed rat; assay type: ADME, organism-based; details: in vivo
[19] = Clearance in iv dosed mouse; assay type: ADME, organism-based; details: in vivo
[20] = tested on: Canis familiaris; assay: Dose normalized AUC in orally dosed Beagle dog; assay type: ADME, organism-based, Canis lupus familiaris; details: in vivo, po
[21] = biological target: T1, Bile acid receptor (Homo sapiens); assay: Binding affinity to human FXR by X-ray crystallography
[22] = Volume of distribution at steady state in iv dosed cynomolgus monkey; assay type: ADME, organism-based, Macaca fascicularis; details: in vivo, read-out: Vdss
[23] = Volume of distribution at steady state in iv dosed rat; assay type: ADME, organism-based; details: in vivo, read-out: Vdss
[24] = Volume of distribution at steady state in iv dosed mouse; assay type: ADME, organism-based; details: in vivo, read-out: Vdss
[25] = Clearance in iv dosed cynomolgus monkey; assay type: ADME, organism-based, Macaca fascicularis; details: in vivo

CC(C)c1onc(-c2c(Cl)cccc2Cl)c1COc1ccc(-c2ccc3c(C(=O)O)ccnc3c2)cc1
Activity [1]: 99%
EC50 [2]: 560 nM
Activity [3]: 85%
EC50 [4]: 340 nM

CC(C)c1onc(-c2c(Cl)cccc2Cl)c1COc1ccc(-c2ccc3nc(C(=O)O)nnc3c2)cc1
Activity [1]: 100%
EC50 [2]: > 10000 nM
EC50 [4]: 360 nM

Cc1cc(C(=O)O)nc2ccc(-c3ccc(OCc4c(-c5c(Cl)cccc5Cl)noc4C(C)C)cc3)cc12
Activity [1]: 108%
EC50 [2]: 24 nM
Activity [3]: 107%
EC50 [4]: 81 nM

CC(C)c1onc(-c2c(Cl)cccc2Cl)c1COc1ccc(-c2ccc3nc(C(=O)O)cc(O)c3c2)cc1
Activity [1]: 91%
EC50 [2]: > 10000 nM
EC50 [4]: 51 nM

CC(C)c1onc(-c2c(Cl)cccc2Cl)c1COc1ccc(-c2cc3ccc(C(=O)O)nc3cc2F)cc1
Activity [1]: 115%
EC50 [2]: 110 nM
Activity [3]: 107%
EC50 [4]: 240 nM

CC(C)c1onc(-c2c(Cl)cccc2Cl)c1COc1ccc(-c2ccc3cc(C(=O)O)cnc3c2)cc1
Activity [1]: 87%
EC50 [2]: 260 nM
Activity [3]: 88%
EC50 [4]: 200 nM

Cc1cc(OCc2c(-c3c(Cl)cccc3Cl)noc2C(C)C)ccc1-c1ccc2nc(C(=O)O)ccc2c1
Activity [1]: 87%
EC50 [2]: 52 nM
Activity [3]: 91%
EC50 [4]: 250 nM

CC(C)c1onc(-c2c(Cl)cccc2Cl)c1COc1ccc(-c2ccc3cc(C(=O)O)ncc3c2)cc1
bioavailability [5]: 2.5%
bioavailability [6]: 30%
bioavailability [7]: 15%
half-life [8]: 4.17 h
clearance [9]: 18 mL/min/kg
Vd [10]: 2 L/kg
clearance [11]: 8.2 mL/min/kg
Activity [1]: 83%
half-life [12]: 10.3 h
half-life [13]: 3.83 h
bioavailability [14]: 6.3%
AUC [15]: 300 ng·kg·h/mg/mL
AUC [16]: 36 ng·kg·h/mg/mL
AUC [17]: 40 ng·kg·h/mg/mL
half-life [18]: 1.47 h
clearance [19]: 29 mL/min/kg
EC50 [2]: 77 nM
AUC [20]: 320 ng·kg·h/mg/mL
Activity [21]: Active
Vd [22]: 3.1 L/kg
Vd [23]: 1.8 L/kg
Activity [3]: 86%
Vd [24]: 5.1 L/kg
EC50 [4]: 120 nM
clearance [25]: 11 mL/min/kg

CC(C)COc1cc(C(=O)O)nc2ccc(-c3ccc(OCc4c(-c5c(Cl)cccc5Cl)noc4C(C)C)cc3)cc12
Activity [1]: 105%
EC50 [2]: 81 nM
Activity [3]: 93%
EC50 [4]: 78 nM

Cc1cc(-c2ccc3nc(C(=O)O)ccc3c2)ccc1OCc1c(-c2c(Cl)cccc2Cl)noc1C(C)C
Activity [1]: 100%
EC50 [2]: 44 nM
Activity [3]: 94%
EC50 [4]: 110 nM

CC(C)c1onc(-c2c(Cl)cccc2Cl)c1COc1ccc(-c2ccc3nc(C(=O)O)cnc3c2)cc1
Activity [1]: 96%
EC50 [2]: 690 nM
Activity [3]: 109%
EC50 [4]: 150 nM

— ChEMBL document CHEMBL1671792, “Conformationally constrained farnesoid X receptor (FXR) agonists: heteroaryl replacements of the naphthalene” (Bioorg Med Chem Lett, 2011)
